Experimental data published in patent US6548472B1, “Liquid cleaning compositions comprising 2-bromo-2-nitro-1,3 propanediol” (Colgate-Palmolive Co., priority 2001, dated 2003).

Test system: mixture of bacteria
Test: D-value method test (rapid preservation screening, bacteria growth detection time by conductometry)
Format: cell-based
Conditions: FIG. 1; sodium gluconate (formula B) compared with Na4EDTA (formula A, reference)
Excerpt: This D-value method test is used for rapid screening. It compares the new product to a reference which gives satisfactory result in real life conditions and which must have a formula composition as close as possible to the tested product (in this example EDTA has been replaced by sodium gluconate). The tested product and the reference are inoculated by a mixture of bacteria. Once they have been inoculated the bacteria slowly disappear due to the beneficial influence of the preservative system. The longer the contact time, the lower the residual bacteria number. The better the preservation system, the lower the residual bacteria number at a given time. The inocculated products are then sampled at different times and the samples are diluted by a nutriant which helps bacteria proliferation. The time needed to detect bacteria in the diluted sample is then measured by conductometry (bacteria growth generally leads to a increase of conductivity). The longer the detection time in sample diluted by nutrient, the lower the residual alive bacteria number after sampling, the better the preservative system.

`O=C([O-])[C@H](O)[C@@H](O)[C@H](O)[C@H](O)CO.[Na+]` [sodium gluconate] was tested, and the “D bacteria values: Myacid BT potentiator performance” value was “superior Myacid BT potentiator”.
